Reference: PMC10580381 (ACS Pharmacology & Translational Science, 2023)

How the values were obtained:
H820 cells [1] = settings: H820, gefitinib 5 μM alone, 48 h
H1975 cells [2] = tested on: H1975 cells
in vivo = settings: NOD SCID γ (NSG), mouse
Experimental: A Zorbax Eclipse XDB-C18 column (4.6 × 250 mm^2, 5 μm, Agilent Technologies) was used to achieve chromatographic separation of the analytes. An isocratic chromatographic system was used. The mobile phase was water:acetonitrile (35:65, v/v) with 0.1% formic acid at a flow rate of 0.25 mL/min. The injection volume of the sample was 10 μL. The triple quadrupole mass spectrometer was operated in positive electrospray ionization mode. The spray voltage was +3000 V, and the vaporizer temperature was 280 °C. The pressure of the collision gas was 1.0 mTorr.

A549 cells = settings: A549, gefitinib 5 μM alone, 48 h
Experimental: At least 10,000 events were acquired using a LSRFortessa cell analyzer, and the flow cytometric data were analyzed using BD FACSDiva software (BD Biosciences). Apoptotic cells were defined as the ones stained positive for both Annexin V-FITC and 7-AAD.

H820 cells [3] = tested on: H820 cells
H1975 cells [4] = settings: H1975, gefitinib 5 μM alone, 48 h
p27^Kip1 (CDKN1B) = experiment: Real-time PCR of p27^Kip1 expression in H1975; format: cell-based, human; settings: H1975, 24 h, flunarizine 2.5, 5, or 10 μM or SAHA 0.25, 0.5, or 1 μM; all concentrations tested
Experimental: (§1) Reverse transcription was performed using 1 μg of total RNA sample with the PrimeScript First Strand cDNA Synthesis Kit (TaKaRa Biomedical Technology) at 37 °C for 10 min. The cDNA was then amplified by real-time PCR to determine the relative expression of p27^Kip1 and BIM using the KAPA SYBR FAST qPCR kit (KapaBiosystems, Wilmington, Massachusetts) with a LightCycler 480 Instrument I instrument (Roche Applied Science, Indianapolis, Indiana). The house-keeping gene GAPDH was also measured for normalization. Specific primer sequences used in the PCR reactions are p27^Kip1, forward 5′-[…]-3′ and reverse 5′-[…]-3′; Bim, forward 5′-[…]-3′ and reverse 5′-[…]-3′; and GAPDH, forward 5′-[…]-3′ and reverse 5′-[…]-3′. The PCR temperature program was set at 95 °C for 5 min, followed by 35 cycles of 95 °C for 10 s and 60 °C for 10 s. The fluorescent signal was detected at the end of the PCR elongation step of every cycle to keep track of the amount of amplified DNA. ΔCt was calculated by subtracting the Ct of GAPDH from the Ct of Bim or p27^Kip1. Fold change in gene expression was analyzed by the 2^–ΔΔCt method.

Bim (BCL2L11) = experiment: Real-time PCR of Bim expression in H1975; format: cell-based, human; settings: H1975, 24 h, flunarizine 2.5, 5, or 10 μM or SAHA 0.25, 0.5, or 1 μM; all concentrations tested
Experimental: as §1

[5] = cited from earlier work
[6] = tested on: histone H3 acetylation (Lys 9,14) (AcH3); experiment: Western blot of histone H3 acetylation (AcH3) in H1975 cells; format: cell-based, human; settings: 10 μM, 24 h (Figure 1A,B)
Experimental: An increase of histone acetylation is a well-characterized hallmark of HDAC inhibition. […] After the cancer cells were treated with the designated drug candidates, they were harvested in lysis buffer (0.05 M HEPES, 0.15 M NaCl, 2 mM EDTA, 10% v/v glycerol, and 1% v/v Triton X-100, pH 7.4) supplemented with protease and phosphatase inhibitors. Sodium dodecyl sulfate poly(acrylamide) gel electrophoresis (SDS-PAGE) was used to separate the different proteins in the whole cell lysates, which were then transferred to a poly(vinylidene difluoride) membrane for immunoblot analysis using different specific antibodies (acetylated histone H3, acetylated α-tubulin, histone H3, or GAPDH; Cell Signaling Technology). The bands corresponding to specific proteins of interest were visualized by using the WesternBright ECL HRP substrate (Advansta, San Jose, California). A chemiluminescent Western blot signal was detected and analyzed using a ChemiDoc MP system (Bio-Rad Laboratories, Hercules, California).

ABCG2 = target: T1, ABCG2 (Homo sapiens, UniProt Q9UNQ0); experiment: ABC transporter-mediated drug efflux assay, ABCG2 (pheophorbide A); settings: FTC 1 μM, control ABCG2 inhibitor, HEK293/ABCG2
T1 sequence (Q9UNQ0 1-655): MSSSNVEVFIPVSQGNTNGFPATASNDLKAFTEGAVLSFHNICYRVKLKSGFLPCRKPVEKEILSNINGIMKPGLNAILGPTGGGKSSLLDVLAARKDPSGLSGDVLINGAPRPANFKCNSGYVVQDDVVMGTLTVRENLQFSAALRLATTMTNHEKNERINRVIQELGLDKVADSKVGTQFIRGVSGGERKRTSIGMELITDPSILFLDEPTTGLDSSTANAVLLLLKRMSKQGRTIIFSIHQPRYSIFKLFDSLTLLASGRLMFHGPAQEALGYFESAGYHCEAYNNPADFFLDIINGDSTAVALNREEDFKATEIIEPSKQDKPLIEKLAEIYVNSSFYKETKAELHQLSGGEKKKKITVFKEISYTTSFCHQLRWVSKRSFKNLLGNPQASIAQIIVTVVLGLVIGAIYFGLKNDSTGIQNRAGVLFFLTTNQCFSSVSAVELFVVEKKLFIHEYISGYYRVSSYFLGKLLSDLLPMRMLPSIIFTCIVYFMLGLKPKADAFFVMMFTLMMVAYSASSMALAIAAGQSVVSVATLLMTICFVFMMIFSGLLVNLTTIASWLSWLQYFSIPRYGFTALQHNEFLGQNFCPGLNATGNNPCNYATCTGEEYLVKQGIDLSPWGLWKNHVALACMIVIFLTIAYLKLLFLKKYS
Experimental: (§2) Specific inhibitors for ABCB1 (PSC833) and ABCG2 (FTC) were used as a control for comparison. Cells were analyzed by using a LSRFortessa cell analyzer (BD Biosciences). […] At least 10,000 events were collected for quantitative analysis.

ABCB1 = ABCB1 (Homo sapiens, UniProt P08183); experiment: ABC transporter-mediated drug efflux assay, ABCB1 (rhodamine 123); settings: PSC833 1 μM, control ABCB1 inhibitor, HEK293/ABCB1
Experimental: as §2

Chain of ABCB1 (P08183 whole entry, species assumed): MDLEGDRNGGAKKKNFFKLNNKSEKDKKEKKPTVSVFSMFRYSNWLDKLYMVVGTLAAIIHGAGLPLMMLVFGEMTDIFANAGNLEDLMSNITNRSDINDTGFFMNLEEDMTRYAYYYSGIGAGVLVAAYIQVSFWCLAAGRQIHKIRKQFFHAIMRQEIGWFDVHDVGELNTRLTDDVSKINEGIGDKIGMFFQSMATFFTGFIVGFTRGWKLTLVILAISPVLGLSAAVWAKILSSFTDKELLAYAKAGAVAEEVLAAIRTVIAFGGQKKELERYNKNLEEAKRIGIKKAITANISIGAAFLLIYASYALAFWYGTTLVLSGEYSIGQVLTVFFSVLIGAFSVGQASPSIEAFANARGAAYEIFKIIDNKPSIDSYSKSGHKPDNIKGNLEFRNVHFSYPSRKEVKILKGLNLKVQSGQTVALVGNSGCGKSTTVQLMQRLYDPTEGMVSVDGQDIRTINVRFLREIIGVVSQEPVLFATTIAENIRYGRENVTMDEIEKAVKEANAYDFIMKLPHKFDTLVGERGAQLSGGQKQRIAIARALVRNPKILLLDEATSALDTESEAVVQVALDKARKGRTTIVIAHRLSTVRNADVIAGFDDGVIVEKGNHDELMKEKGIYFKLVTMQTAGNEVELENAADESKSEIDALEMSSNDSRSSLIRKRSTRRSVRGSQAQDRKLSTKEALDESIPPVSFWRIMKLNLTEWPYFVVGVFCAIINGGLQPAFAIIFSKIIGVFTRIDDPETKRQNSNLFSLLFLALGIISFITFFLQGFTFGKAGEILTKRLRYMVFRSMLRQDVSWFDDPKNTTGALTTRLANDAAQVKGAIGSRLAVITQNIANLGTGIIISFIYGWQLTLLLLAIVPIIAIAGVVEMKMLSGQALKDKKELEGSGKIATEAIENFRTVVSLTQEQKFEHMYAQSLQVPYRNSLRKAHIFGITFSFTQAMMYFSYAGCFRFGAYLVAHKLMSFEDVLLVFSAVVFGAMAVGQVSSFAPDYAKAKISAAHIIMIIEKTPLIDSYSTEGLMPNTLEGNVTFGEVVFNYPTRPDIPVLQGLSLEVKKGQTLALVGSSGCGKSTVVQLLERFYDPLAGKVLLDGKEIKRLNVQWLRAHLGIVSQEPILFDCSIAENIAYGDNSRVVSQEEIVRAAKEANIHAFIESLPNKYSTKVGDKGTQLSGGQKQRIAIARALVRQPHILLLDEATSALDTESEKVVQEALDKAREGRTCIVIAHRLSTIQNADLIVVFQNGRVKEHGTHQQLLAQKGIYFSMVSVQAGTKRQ

COc1cc2ncnc(Nc3ccc(F)c(Cl)c3)c2cc1OCCCN1CCOCC1 [gefitinib]
apoptotic cell population (H820 cells [1]): 7.9 ± 1.6%
viability (H1975 cells [2]): 61 ± 5%
concentration at 4 h (in vivo): 32 ± 6 nM
apoptotic cell population (A549 cells): 7.6 ± 0.9%
viability (H820 cells [3]): 66 ± 8%
viability (H1650 cells): 52 ± 8%
apoptotic cell population (H1975 cells [4]): 8.9 ± 1.3%

O=C(CCCCCCC(=O)Nc1ccccc1)NO [SAHA, Vorinostat]
p27^Kip1 expression (p27^Kip1 (CDKN1B)): significantly increase
Bim expression (Bim (BCL2L11)): significantly increase
elimination half-life [5]: ~2 h

Nc1nc(N)c2nc(-c3ccccc3)c(N)nc2n1 [triamterene]
fold increase in histone H3 acetylation (AcH3) over the vehicle control [6]: 75 ± 6 fold

COc1ccc2c3c([nH]c2c1)[C@H](C=C(C)C)N1C(=O)[C@@H]2CCCN2C(=O)[C@@H]1C3 [FTC]
efflux of pheophorbide A (ABCG2 substrate) (ABCG2): potently inhibited the efflux

C/C=C/C[C@@H](C)C(=O)[C@H]1C(=O)N[C@@H](C(C)C)C(=O)N(C)CC(=O)N(C)[C@@H](CC(C)C)C(=O)N[C@@H](C(C)C)C(=O)N(C)[C@@H](CC(C)C)C(=O)N[C@@H](C)C(=O)N[C@H](C)C(=O)N(C)[C@@H](CC(C)C)C(=O)N(C)[C@@H](CC(C)C)C(=O)N(C)[C@@H](C(C)C)C(=O)N1C [PSC833]
efflux of rhodamine 123 (ABCB1 substrate) (ABCB1): potently inhibited the efflux

C(=C\c1ccccc1)/CN1CCN(C(c2ccccc2)c2ccccc2)CC1 [cinnarizine]
fold increase in histone H3 acetylation (AcH3) over the vehicle control [6]: 15 ± 3 fold
